#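 Growth conditions: 96-well plates. Treatment: test compound, 48 hours, 5 concentrations. Analysis: linear interpolation between bracketing concentrations; unreached endpoints set to highest concentration. GI50 marks 50% less growth. TGI marks complete inhibition of growth.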
# What was measured:
# Assay in all cases: NCI anticancer screen, dose series, 48 h
# [1] = tested on: HCC-2998 colon
# [2] = tested on: NCI-H460 lung
# [3] = tested on: SF-268 CNS
# [4] = tested on: SK-MEL-5 melanoma
# [5] = tested on: NCI-H522 lung
# [6] = tested on: BT-549 breast
# [7] = tested on: MDA-MB-231 breast
# [8] = tested on: MDA-N
# [9] = tested on: PC-3 prostate
# [10] = tested on: CAKI-1 renal
Compound,TGI [1],TGI [2],TGI [3],TGI [4],TGI [5],TGI [6],TGI [7],TGI [8],TGI [9],TGI [10],GI50 [1],GI50 [7],GI50 [2],GI50 [4],GI50 [10],GI50 [5],GI50 [9]
CCCCNC(=O)/N=C/c1c(O)c2ccccc2oc1=O,> 100 µM,> 100 µM,> 100 µM,> 100 µM,–,–,–,–,–,–,–,–,–,–,–,–,–
CCCC(=O)[O-].N.N.N.N.N.[Co+3].[O-][Cl+3]([O-])([O-])[O-],> 100 µM,> 100 µM,> 100 µM,> 100 µM,> 100 µM,–,–,–,–,–,–,–,–,–,–,–,–
C=C(C)CNC(=S)N(N)c1ccc2ccccc2c1,> 100 µM,> 100 µM,> 100 µM,> 100 µM,> 100 µM,> 100 µM,> 100 µM,> 100 µM,> 100 µM,–,–,–,–,–,–,–,–
COc1cc(Br)c(CC2C3=C(CCN2C(=O)C2CCC2)CC(=O)CC3)cc1O (configuration not stated),92.9 µM,> 100 µM,> 100 µM,> 100 µM,34.3 µM,–,> 100 µM,45 µM,> 100 µM,–,–,–,–,–,–,–,–
CNc1ncnc2c1cnn2Cc1cn(COCC(O)CO)nn1 (configuration not stated),> 100 µM,–,22 µM,> 100 µM,–,> 100 µM,> 100 µM,> 100 µM,> 100 µM,> 100 µM,–,–,–,–,–,–,–
Cc1ccc([N+](=O)[O-])c2c(NCC(O)CO)ccnc12 (configuration not stated),> 100 µM,53.2 µM,> 100 µM,42.3 µM,–,> 100 µM,–,> 100 µM,> 100 µM,> 100 µM,–,–,–,–,–,–,–
CN(C)CCCNCc1cccc2ccccc12,–,> 100 µM,> 100 µM,> 100 µM,–,> 100 µM,> 100 µM,> 100 µM,> 100 µM,–,–,–,–,–,–,–,–
O=c1ccc2ccc(O)cc2o1,> 100 µM,–,> 100 µM,> 100 µM,> 100 µM,> 100 µM,> 100 µM,> 100 µM,> 100 µM,> 100 µM,–,–,–,–,–,–,–
Cc1nc2ccccc2c(/C=C/c2ccc(Cl)cc2)c1C(=O)/C=C/c1ccccc1,3.3 µM,3.14 µM,–,2.96 µM,–,–,4.37 µM,–,–,–,1.66 µM,1.87 µM,1.39 µM,1.61 µM,–,–,–
C=C1CN(C2=NCCO2)C1,> 100 µM,> 100 µM,> 100 µM,> 100 µM,–,> 100 µM,> 100 µM,> 100 µM,> 100 µM,> 100 µM,–,–,–,–,–,–,–
C=CC(C)(C)C(=C)C(=O)Nc1ccccc1I,> 100 µM,> 100 µM,> 100 µM,> 100 µM,–,–,> 100 µM,> 100 µM,> 100 µM,> 100 µM,–,–,–,–,–,–,–
COC(=O)C(NC(=O)c1ccccc1)C(c1ccc(Cl)cc1)P(=O)(OC)OC (configuration not stated),> 100 µM,> 100 µM,> 100 µM,> 100 µM,> 100 µM,–,–,–,–,> 100 µM,–,–,–,–,–,–,–
Cc1ccc(CCC(=O)C(=O)O)s1,> 100 µM,> 100 µM,> 100 µM,> 100 µM,> 100 µM,–,–,–,–,90.3 µM,–,–,–,–,–,–,–
CCOC(=O)C(NC(=O)OC(C)(C)C)C(=O)OCC,> 100 µM,> 100 µM,> 100 µM,> 100 µM,> 100 µM,> 100 µM,–,–,> 100 µM,> 100 µM,–,–,–,–,–,–,–
COc1ccc(Sc2ccccc2N)cc1,> 100 µM,> 100 µM,> 100 µM,62.9 µM,–,–,–,–,–,–,–,–,–,–,–,–,–
CCC(NC1=NCCO1)c1cccs1 (configuration not stated),28.9 µM,46 µM,–,30.6 µM,35.6 µM,37.7 µM,44.6 µM,27.7 µM,33.9 µM,30.9 µM,–,–,–,–,–,–,–
Cc1ccc(NC(=O)CSC(N)=O)cc1C,> 100 µM,> 100 µM,> 100 µM,> 100 µM,> 100 µM,–,> 100 µM,–,> 100 µM,> 100 µM,–,–,–,–,–,–,–
CN(Cc1cc(Cl)c(Cl)cc1NC(=O)CN)[C@H]1CCCC[C@@H]1N1CCCC1,31.2 µM,57.8 µM,> 100 µM,32.1 µM,40.4 µM,–,> 100 µM,31.4 µM,> 100 µM,> 100 µM,–,–,–,–,–,–,–
CCOC(=O)N1CCC(=C2c3ccc(Cl)cc3CCc3cccnc32)CC1,23.6 µM,18.9 µM,–,9.22 µM,–,–,42.5 µM,16.8 µM,25.7 µM,–,–,–,–,–,–,–,–
CC1=NN(c2nc(N)nc(CF)n2)C(C)(C)C1,> 100 µM,> 100 µM,> 100 µM,> 100 µM,–,> 100 µM,> 100 µM,–,> 100 µM,> 100 µM,–,–,–,–,–,–,–
CC(C)(C)[Si](C)(C)OCC1OC(n2cnc3c(=O)[nH]c(N)nc32)C(O[Si](C)(C)C(C)(C)C)C1O[Si](C)(C)C(C)(C)C (configuration not stated),4.02 µM,6.54 µM,7.16 µM,1.77 µM,3.61 µM,–,10.5 µM,3.3 µM,9.79 µM,52.9 µM,–,–,–,–,–,–,–
S=c1[nH]c2ccc(I)cc2c(=S)n1Cc1ccccc1,–,16.3 µM,25.3 µM,13.2 µM,16.5 µM,27 µM,20.4 µM,56.9 µM,15.5 µM,> 100 µM,–,–,–,–,–,–,–
O=C(N/N=C/c1cc(Br)cc(Br)c1[O-])c1ccccc1O.O=C(N/N=C/c1cc(Br)cc(Br)c1[O-])c1ccccc1O.[Ni+2],1.39 µM,1.66 µM,6.94 µM,1.44 µM,0.727 µM,–,–,–,–,1.53 µM,–,–,–,–,–,–,–
O=C(CSc1nc2ccccc2c(=O)n1-c1ccccc1)N=Nc1c(O)[nH]c2ccc(F)cc12,4.75 µM,4.69 µM,4.93 µM,15.4 µM,–,–,4.79 µM,14 µM,3.77 µM,3.46 µM,–,–,–,–,–,–,–
COC1OC2=CCC3C(=O)NC(=O)C3C2[C@H](OCc2ccccc2)C1OCc1ccccc1 (some centres not stated),11.4 µM,32.6 µM,–,34.1 µM,3.18 µM,–,–,–,–,–,–,–,–,–,–,–,–
COc1ccc2nc3cc(Cl)ccc3c(NCCNc3c4ccc(Cl)cc4nc4ccc(OC)cc34)c2c1,3.28 µM,–,–,3.27 µM,3.23 µM,–,–,–,3.45 µM,3.18 µM,1.79 µM,–,–,1.81 µM,1.72 µM,1.72 µM,1.83 µM
Fc1cc(-c2cc(-c3ccc4c(c3)OCO4)n[nH]2)c(Cl)cc1Cl,15.6 µM,14.6 µM,9.7 µM,21 µM,14.6 µM,20.7 µM,4.94 µM,–,11.1 µM,10.8 µM,–,–,–,–,–,–,–

# Source: PubChem BioAssay (NCI)
